From patent US7732420B2, “Combinations of transfection lipids exhibiting increased transfection efficiencies” (Northwestern University, priority 2003, dated 2010) come the findings set out here.

The test system of test [1] is human umbilical artery endothelial cells (HUAECs). Description: Transfection of HUAEC with lipoplexes, β-galactosidase expression. The conditions noted are these: lipid used individually. Type of test: cell-based. As to the method: The cells were seeded in 96-well plates at 24 hours before transfection at densities to give about 80% confluence at the time of transfection. Chloroform solutions of EDLPC with EDOPC and EDLPC with EDMPC were mixed at the different ratios and then chloroform was removed under N2 stream and vacuum. The lipid mixtures were hydrated in HBSS at 1 mg/ml to form liposomes. Liposomes and plasmid DNA were diluted in OptiMEM to 80 μg/ml for lipid and to 20 μg/ml for DNA, and liposomes were pipetted into an equal volume of plasmid DNA solution at a 4:1 weight ratio and mixed gently. The resultant DNA (plasmid with β-galactosidase marker gene)—lipid complexes were incubated at room temperature for 15 min and then added to the cells that were either in medium lacking serum (black bars) or medium containing 5% serum (gray bars). The lipoplexes had 35% (lipoid) excess positive over negative (DNA) charge. Cells were assayed for β-galactosidase expression 24 hours after transfection. Data represent the mean±S.D. of a representative experiment performed in quadruplicate. ˜20,000 fluorescence units corresponded approximately to 0.1 milliunit of β-galactosidase.
Cells were treated with DNA-lipid complex for 2 h in the absence (“no serum”) or presence of serum (“serum”) and then washed with HBSS and supplemented with fresh culture medium. Data represent the mean±S.D. of a representative experiment performed in quadruplicate.
Cells were treated with DNA-lipid complex for 2 h in the absence (“no serum”) or presence of 5% normal serum (“normal serum”) or 5% delipidated serum (“delipidated serum”) and then washed with HBSS and supplemented with fresh regular culture medium. Data represent the mean±S.D. of a representative experiment performed in quadruplicate.
Conditions were identical with those described in FIG. 1 except that different lipoid mixtures were used. Ditetradecyldimethyammonium (di C 14 substituted quaternary ammonium) was mixed with dioctadecylammonium (di C 18 quaternary ammonium).

Another test concerns HUAECs. Description: Intracellular distribution of fluorescent lipid and oligonucleotide of lipoplexes. Type of test: cell-based, human. As to the method: Lipoplexes were labeled with a fluoresce in derivative of a double-stranded dodecameric oligonucleotide. Cells were incubated with the resulting lipoplexes in the presence of serum for 2 h and imaged under a fluorescence microscope at 2 h later after being washed with HBSS.
In order to determine if this pattern of fusion is also observed within cells (e.g., the mixture is more prone to fuse with endosomal membranes facilitating escape of DNA from endosomal degradation and nuclei entrance) the intracellular distribution of fluorescent lipid and oligonucleotide in EDOPC and EDLPC/EDOPC (60/40) lipoplexes was investigated. […] Lipoplexes were labeled with a fluorescein derivative of a double-stranded dodecameric oligonucleotide. Cells were incubated with the resulting lipoplexes in the presence of serum for 2 h and imaged under a fluorescence microscope after being washed in HBSS. […] Similar images were obtained with fluorescent plasmid DNA, although the fluorescence of the nucleus was less intense.

With `CCCCCCCCCCCC(=O)OC[C@H](COP(=O)(OCC)OCC[N+](C)(C)C)OC(=O)CCCCCCCCCCC` (some centres unmarked) [EDLPC, 1,2-dilauroyl-sn-glycero-3-ethylphosphocholine], the “transfection activity of the individual lipid” value (from here on “transfection activity”) in test [1] is “quite weak transfection reagents”. With `CCCCCCCCCCCCCC(=O)OC[C@H](COP(=O)(OCC)OCC[N+](C)(C)C)OC(=O)CCCCCCCCCCCCC` (some centres unmarked) [EDMPC, 1,2-dimyristol-sn-glycero-3-ethylphosphocholine], the “transfection activity” value in test [1] was “quite weak transfection reagents”. Regarding `CCCCCCCC/C=C\CCCCCCCC(=O)OC[C@@H](COP(=O)(OCC)OCC[N+](C)(C)C)OC(=O)CCCCCCC/C=C\CCCCCCCC` (some centres unmarked) [EDOPC, 1,2-dioleoyl-sn-glycero-3-ethylphosphocholine], the “transfection activity” value in test [1] was “quite weak transfection reagents”. For the same compound, the “intracellular distribution of lipid” value in the test with HUAECs (fluorescent lipid in lipoplexes) is “remained in the cytoplasm for at least 20 hours”. Also, the “intracellular distribution of oligonucleotide” value in the test on HUAECs (fluorescent oligonucleotide in lipoplexes, in the presence of serum) is recorded as “remained in the cytoplasm for at least 20 hours”.
